# Patent US20260274829A1, “NEW E3 UBIQUITIN LIGASE LIGAND, PROTEIN DEGRADATION AGENT AND USE THEREOF” (GLUETACS THERAPEUTICS (SHANGHAI) CO., LTD., priority 2023, published 2026)
# Tests used:
# Format in all cases: cell-based
# [1] = biological target: T1, IKZF1 (Homo sapiens, UniProt Q13422+Q96SW2); experiment: Western blot degradation of IKZF1 in hPBMC
# T1 construct: endogenous in cells; host or cells: hPBMC
# In short: (§1)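 hPBMC treated with degraders, lysates run on SDS-PAGE and Western blotted; band grayscale measured against DMSO controls. DC50 from fitted concentration-response curve at half control intensity. Remaining target protein (%) = target band normalized to internal control band, relative to untreated.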
# [2] = biological target: T2, IKZF2 (Homo sapiens, UniProt Q96SW2+Q9UKS7); experiment: Western blot degradation of IKZF2 in hPBMC
# T2 construct: endogenous in cells; host or cells: hPBMC
# In short: as §1
# [3] = biological target: T3, GSPT1 (Homo sapiens, UniProt P15170+Q96SW2); experiment: Western blot degradation of GSPT1 in hPBMC
# T3 construct: endogenous in cells; host or cells: hPBMC
# In short: as §1
# [4] = biological target: T4, IKZF3 (Homo sapiens, UniProt Q96SW2+Q9UKT9); experiment: Western blot degradation of IKZF3 in hPBMC
# T4 construct: endogenous in cells; host or cells: hPBMC
# In short: as §1
# [5] = biological target: T5, WEE1 (Homo sapiens, UniProt P30291+Q96SW2); experiment: Western blot degradation of WEE1 in hPBMC
# T5 construct: endogenous in cells; host or cells: hPBMC
# In short: as §1
# [6] = biological target: T6, CK1a (Homo sapiens, UniProt P48729+Q96SW2); experiment: Western blot degradation of CK1a in hPBMC
# T6 construct: endogenous in cells; host or cells: hPBMC
# In short: as §1
# T1 sequence (Q13422 whole entry): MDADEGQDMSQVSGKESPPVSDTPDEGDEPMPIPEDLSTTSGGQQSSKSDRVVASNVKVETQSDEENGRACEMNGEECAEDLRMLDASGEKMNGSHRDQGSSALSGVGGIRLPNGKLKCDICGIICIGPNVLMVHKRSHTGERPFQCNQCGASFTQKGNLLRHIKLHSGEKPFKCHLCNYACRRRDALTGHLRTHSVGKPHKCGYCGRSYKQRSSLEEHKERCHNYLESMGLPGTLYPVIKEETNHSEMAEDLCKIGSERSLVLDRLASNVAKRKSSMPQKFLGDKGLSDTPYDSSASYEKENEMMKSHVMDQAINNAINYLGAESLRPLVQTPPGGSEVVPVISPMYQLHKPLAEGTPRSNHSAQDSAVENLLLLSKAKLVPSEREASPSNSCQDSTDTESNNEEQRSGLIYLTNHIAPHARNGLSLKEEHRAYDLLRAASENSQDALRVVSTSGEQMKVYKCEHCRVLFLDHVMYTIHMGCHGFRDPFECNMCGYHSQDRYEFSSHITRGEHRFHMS
# T1 sequence (Q96SW2 whole entry): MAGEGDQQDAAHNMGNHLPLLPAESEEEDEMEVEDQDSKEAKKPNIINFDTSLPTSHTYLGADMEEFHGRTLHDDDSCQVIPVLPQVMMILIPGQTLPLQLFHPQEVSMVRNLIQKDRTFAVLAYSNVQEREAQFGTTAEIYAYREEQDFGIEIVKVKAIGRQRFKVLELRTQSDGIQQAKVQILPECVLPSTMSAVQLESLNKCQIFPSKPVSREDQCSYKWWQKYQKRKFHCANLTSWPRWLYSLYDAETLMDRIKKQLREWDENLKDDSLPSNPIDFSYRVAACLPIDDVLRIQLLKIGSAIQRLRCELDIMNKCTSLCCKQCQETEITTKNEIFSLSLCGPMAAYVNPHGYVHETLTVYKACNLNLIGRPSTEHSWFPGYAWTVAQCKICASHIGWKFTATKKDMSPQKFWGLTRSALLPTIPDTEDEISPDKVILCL
# T1 sequence (Q16531 whole entry partner): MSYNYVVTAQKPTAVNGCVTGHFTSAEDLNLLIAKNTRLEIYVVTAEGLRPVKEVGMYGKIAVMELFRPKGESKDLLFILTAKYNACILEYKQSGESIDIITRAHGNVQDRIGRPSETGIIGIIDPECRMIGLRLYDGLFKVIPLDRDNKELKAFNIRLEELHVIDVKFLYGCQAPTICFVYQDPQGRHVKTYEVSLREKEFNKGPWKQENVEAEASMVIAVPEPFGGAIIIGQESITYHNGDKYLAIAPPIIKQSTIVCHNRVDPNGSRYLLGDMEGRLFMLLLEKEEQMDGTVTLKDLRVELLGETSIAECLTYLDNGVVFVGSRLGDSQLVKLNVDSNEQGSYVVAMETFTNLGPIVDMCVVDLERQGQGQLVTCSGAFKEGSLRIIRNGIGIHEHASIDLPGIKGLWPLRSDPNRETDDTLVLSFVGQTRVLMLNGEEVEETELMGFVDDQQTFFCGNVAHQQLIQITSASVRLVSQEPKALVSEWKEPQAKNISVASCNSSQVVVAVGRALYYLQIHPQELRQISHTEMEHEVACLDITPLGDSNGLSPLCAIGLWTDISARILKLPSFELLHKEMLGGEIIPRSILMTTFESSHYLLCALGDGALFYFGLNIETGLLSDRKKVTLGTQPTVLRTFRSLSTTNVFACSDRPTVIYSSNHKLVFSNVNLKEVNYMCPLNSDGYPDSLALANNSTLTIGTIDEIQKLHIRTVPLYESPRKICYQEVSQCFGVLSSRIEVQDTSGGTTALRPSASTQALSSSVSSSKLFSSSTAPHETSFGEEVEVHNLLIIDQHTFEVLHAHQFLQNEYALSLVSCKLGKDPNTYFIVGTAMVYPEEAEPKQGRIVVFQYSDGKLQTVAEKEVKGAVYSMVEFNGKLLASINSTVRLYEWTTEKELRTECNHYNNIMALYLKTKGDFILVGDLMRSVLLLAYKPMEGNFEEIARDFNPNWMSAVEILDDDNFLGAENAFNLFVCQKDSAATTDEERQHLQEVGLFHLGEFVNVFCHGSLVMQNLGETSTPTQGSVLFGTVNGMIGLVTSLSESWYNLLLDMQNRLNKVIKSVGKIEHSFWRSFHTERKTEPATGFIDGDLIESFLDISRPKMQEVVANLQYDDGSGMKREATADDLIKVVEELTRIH
# T2 sequence (Q9UKS7 whole entry): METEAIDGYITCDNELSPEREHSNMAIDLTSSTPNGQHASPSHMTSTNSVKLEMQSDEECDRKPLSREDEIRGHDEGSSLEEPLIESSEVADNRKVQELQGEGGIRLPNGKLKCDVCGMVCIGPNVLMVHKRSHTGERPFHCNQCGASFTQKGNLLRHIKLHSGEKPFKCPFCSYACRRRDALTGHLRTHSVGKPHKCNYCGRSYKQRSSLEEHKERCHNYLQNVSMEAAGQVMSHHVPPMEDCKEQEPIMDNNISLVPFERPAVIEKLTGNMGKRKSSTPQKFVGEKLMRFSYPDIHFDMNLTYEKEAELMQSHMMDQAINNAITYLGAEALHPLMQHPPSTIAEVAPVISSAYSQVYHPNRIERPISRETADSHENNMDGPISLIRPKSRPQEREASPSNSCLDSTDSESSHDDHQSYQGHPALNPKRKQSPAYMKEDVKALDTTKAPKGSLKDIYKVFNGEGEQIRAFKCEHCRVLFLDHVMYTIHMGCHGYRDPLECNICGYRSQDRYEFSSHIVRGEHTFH
# T2 sequence (Q96SW2 whole entry): as the sequence (Q96SW2 whole entry) above
# T2 sequence (Q16531 whole entry partner): as the sequence (Q16531 whole entry partner) above
# T3 sequence (P15170 whole entry): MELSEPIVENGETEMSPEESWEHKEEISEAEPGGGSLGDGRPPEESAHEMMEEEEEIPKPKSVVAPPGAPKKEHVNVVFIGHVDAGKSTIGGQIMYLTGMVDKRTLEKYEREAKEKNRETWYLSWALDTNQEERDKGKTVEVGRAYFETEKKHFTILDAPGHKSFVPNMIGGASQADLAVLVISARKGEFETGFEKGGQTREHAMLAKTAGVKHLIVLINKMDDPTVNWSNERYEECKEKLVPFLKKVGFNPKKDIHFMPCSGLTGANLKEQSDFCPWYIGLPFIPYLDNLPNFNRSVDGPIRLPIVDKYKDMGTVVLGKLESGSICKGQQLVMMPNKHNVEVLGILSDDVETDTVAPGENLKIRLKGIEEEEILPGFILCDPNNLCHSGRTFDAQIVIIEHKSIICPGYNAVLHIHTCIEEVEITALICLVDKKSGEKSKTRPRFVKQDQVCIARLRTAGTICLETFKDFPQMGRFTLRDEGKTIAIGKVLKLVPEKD
# T3 sequence (Q96SW2 whole entry): as the sequence (Q96SW2 whole entry) above
# T3 sequence (Q16531 whole entry partner): as the sequence (Q16531 whole entry partner) above
# T6 sequence (P48729 whole entry): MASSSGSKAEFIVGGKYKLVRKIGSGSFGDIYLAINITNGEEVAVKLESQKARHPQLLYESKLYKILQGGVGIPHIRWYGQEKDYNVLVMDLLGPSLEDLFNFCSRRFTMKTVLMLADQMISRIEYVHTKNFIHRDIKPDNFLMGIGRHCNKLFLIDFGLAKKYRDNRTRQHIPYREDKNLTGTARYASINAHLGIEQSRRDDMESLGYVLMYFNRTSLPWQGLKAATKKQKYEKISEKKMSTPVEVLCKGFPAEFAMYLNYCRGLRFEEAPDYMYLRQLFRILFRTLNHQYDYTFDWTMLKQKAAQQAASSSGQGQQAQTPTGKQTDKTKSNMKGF
# T6 sequence (Q96SW2 whole entry): as the sequence (Q96SW2 whole entry) above
# T6 sequence (Q16531 whole entry partner): as the sequence (Q16531 whole entry partner) above
# T5 sequence (P30291 whole entry): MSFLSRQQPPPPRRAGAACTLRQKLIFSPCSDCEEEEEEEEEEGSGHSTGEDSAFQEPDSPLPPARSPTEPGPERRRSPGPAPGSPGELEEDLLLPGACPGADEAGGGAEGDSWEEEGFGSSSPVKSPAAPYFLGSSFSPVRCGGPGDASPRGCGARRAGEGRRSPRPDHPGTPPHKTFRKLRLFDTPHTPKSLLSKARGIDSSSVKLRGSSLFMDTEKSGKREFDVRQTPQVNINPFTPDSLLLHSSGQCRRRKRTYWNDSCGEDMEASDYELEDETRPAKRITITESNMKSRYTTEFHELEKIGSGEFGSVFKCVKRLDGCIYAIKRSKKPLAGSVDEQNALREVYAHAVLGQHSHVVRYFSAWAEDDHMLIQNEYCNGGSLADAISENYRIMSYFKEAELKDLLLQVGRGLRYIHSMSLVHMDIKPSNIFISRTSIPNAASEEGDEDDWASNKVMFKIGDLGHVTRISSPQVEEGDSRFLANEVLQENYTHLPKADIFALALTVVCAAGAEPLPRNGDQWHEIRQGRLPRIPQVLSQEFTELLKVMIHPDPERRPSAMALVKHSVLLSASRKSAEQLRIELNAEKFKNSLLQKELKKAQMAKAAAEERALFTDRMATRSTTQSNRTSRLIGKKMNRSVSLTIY
# T5 sequence (Q96SW2 whole entry): as the sequence (Q96SW2 whole entry) above
# T5 sequence (Q16531 whole entry partner): as the sequence (Q16531 whole entry partner) above
Structure (SMILES),Degradation of substrate protein IKZF1 (substrate protein remaining %) [1],Degradation of substrate protein IKZF2 (substrate protein remaining %) [2],Degradation of substrate protein GSPT1 (substrate protein remaining %) [3],Degradation of substrate protein IKZF3 (substrate protein remaining %) [4],Degradation of substrate protein WEE1 (substrate protein remaining %) [5],Degradation of substrate protein CK1a (substrate protein remaining %) [6]
"O=C1CCC(c2ccc(CO)nc2F)C(=O)N1 (stereo not drawn) [GT-07558, 3-(2-fluoro-6-(hydroxymethyl)pyridin-3-yl)piperidine-2,6-dione]",A (A is defined as 0% ≤ substrate protein remaining % ≤ 80%),B (B is defined as substrate protein remaining % > 80%),B (B is defined as substrate protein remaining % > 80%),B (B is defined as substrate protein remaining % > 80%),A (A is defined as 0% ≤ substrate protein remaining % ≤ 80%),A (A is defined as 0% ≤ substrate protein remaining % ≤ 80%)
"O=C1CCC(c2cnc(F)c(CO)c2)C(=O)N1 (stereo not drawn) [GT-07074, 3-(6-fluoro-5-(hydroxymethyl)pyridin-3-yl)piperidine-2,6-dione]",B (B is defined as substrate protein remaining % > 80%),A (A is defined as 0% ≤ substrate protein remaining % ≤ 80%),A (A is defined as 0% ≤ substrate protein remaining % ≤ 80%),A (A is defined as 0% ≤ substrate protein remaining % ≤ 80%),B (B is defined as substrate protein remaining % > 80%),B (B is defined as substrate protein remaining % > 80%)
"O=C1CCC(Nc2ccc(CO)nc2)C(=O)N1 (stereo not drawn) [GT-07446, 3-((6-(hydroxymethyl)pyridin-3-yl)amino)piperidine-2,6-dione]",A (A is defined as 0% ≤ substrate protein remaining % ≤ 80%),A (A is defined as 0% ≤ substrate protein remaining % ≤ 80%),A (A is defined as 0% ≤ substrate protein remaining % ≤ 80%),A (A is defined as 0% ≤ substrate protein remaining % ≤ 80%),A (A is defined as 0% ≤ substrate protein remaining % ≤ 80%),A (A is defined as 0% ≤ substrate protein remaining % ≤ 80%)
"O=C1CCN(c2cncc(CCl)c2)C(=O)N1 [GT-07047, 1-(5-(chloromethyl)pyridin-3-yl)dihydropyrimidine-2,4(1H,3H)-dione]",A (A is defined as 0% ≤ substrate protein remaining % ≤ 80%),A (A is defined as 0% ≤ substrate protein remaining % ≤ 80%),B (B is defined as substrate protein remaining % > 80%),A (A is defined as 0% ≤ substrate protein remaining % ≤ 80%),B (B is defined as substrate protein remaining % > 80%),A (A is defined as 0% ≤ substrate protein remaining % ≤ 80%)
"O=C1CCC(Nc2cnccc2CO)C(=O)N1 (stereo not drawn) [GT-07559, 3-((4-(hydroxymethyl)pyridin-3-yl)amino)piperidine-2,6-dione]",A (A is defined as 0% ≤ substrate protein remaining % ≤ 80%),A (A is defined as 0% ≤ substrate protein remaining % ≤ 80%),A (A is defined as 0% ≤ substrate protein remaining % ≤ 80%),A (A is defined as 0% ≤ substrate protein remaining % ≤ 80%),A (A is defined as 0% ≤ substrate protein remaining % ≤ 80%),A (A is defined as 0% ≤ substrate protein remaining % ≤ 80%)
"NCc1ccc(N2CCC(=O)NC2=O)nc1 [GT-07012, 1-(5-(aminomethyl)pyridin-2-yl)dihydropyrimidine-2,4(1H,3H)-dione]",B (B is defined as substrate protein remaining % > 80%),B (B is defined as substrate protein remaining % > 80%),A (A is defined as 0% ≤ substrate protein remaining % ≤ 80%),A (A is defined as 0% ≤ substrate protein remaining % ≤ 80%),A (A is defined as 0% ≤ substrate protein remaining % ≤ 80%),B (B is defined as substrate protein remaining % > 80%)
"O=C1CCC(Nc2cc(CO)c(F)cn2)C(=O)N1 (stereo not drawn) [GT-07725, 3-((5-fluoro-4-(hydroxymethyl)pyridin-2-yl)amino)piperidine-2,6-dione]",A (A is defined as 0% ≤ substrate protein remaining % ≤ 80%),A (A is defined as 0% ≤ substrate protein remaining % ≤ 80%),A (A is defined as 0% ≤ substrate protein remaining % ≤ 80%),A (A is defined as 0% ≤ substrate protein remaining % ≤ 80%),A (A is defined as 0% ≤ substrate protein remaining % ≤ 80%),B (B is defined as substrate protein remaining % > 80%)
"O=Cc1ccncc1NC1CCC(=O)NC1=O (stereo not drawn) [GT-07804, 3-((2,6-dioxopiperidin-3-yl)amino)isonicotinaldehyde]",B (B is defined as substrate protein remaining % > 80%),A (A is defined as 0% ≤ substrate protein remaining % ≤ 80%),B (B is defined as substrate protein remaining % > 80%),A (A is defined as 0% ≤ substrate protein remaining % ≤ 80%),B (B is defined as substrate protein remaining % > 80%),B (B is defined as substrate protein remaining % > 80%)
"O=Cc1ccc(NC2CCC(=O)NC2=O)cn1 (stereo not drawn) [GT-07640, 5-((2,6-dioxopiperidin-3-yl)amino)picolinaldehyde]",A (A is defined as 0% ≤ substrate protein remaining % ≤ 80%),A (A is defined as 0% ≤ substrate protein remaining % ≤ 80%),A (A is defined as 0% ≤ substrate protein remaining % ≤ 80%),A (A is defined as 0% ≤ substrate protein remaining % ≤ 80%),A (A is defined as 0% ≤ substrate protein remaining % ≤ 80%),B (B is defined as substrate protein remaining % > 80%)
"O=C1CCN(c2cc(CCl)ccn2)C(=O)N1 [GT-07078, 1-(4-(chloromethyl)pyridin-2-yl)dihydropyrimidine-2,4(1H,3H)-dione]",B (B is defined as substrate protein remaining % > 80%),B (B is defined as substrate protein remaining % > 80%),A (A is defined as 0% ≤ substrate protein remaining % ≤ 80%),B (B is defined as substrate protein remaining % > 80%),B (B is defined as substrate protein remaining % > 80%),B (B is defined as substrate protein remaining % > 80%)
"NCc1cncc(N2CCC(=O)NC2=O)n1 [GT-07801, 1-(6-(aminomethyl)pyrazin-2-yl)dihydropyrimidine-2,4(1H,3H)-dione]",B (B is defined as substrate protein remaining % > 80%),B (B is defined as substrate protein remaining % > 80%),B (B is defined as substrate protein remaining % > 80%),B (B is defined as substrate protein remaining % > 80%),B (B is defined as substrate protein remaining % > 80%),A (A is defined as 0% ≤ substrate protein remaining % ≤ 80%)
"O=C1CCC(Nc2cncc(CO)c2)C(=O)N1 (stereo not drawn) [GT-07448, 3-((5-(hydroxymethyl)pyridin-3-yl)amino)piperidine-2,6-dione]",A (A is defined as 0% ≤ substrate protein remaining % ≤ 80%),A (A is defined as 0% ≤ substrate protein remaining % ≤ 80%),A (A is defined as 0% ≤ substrate protein remaining % ≤ 80%),A (A is defined as 0% ≤ substrate protein remaining % ≤ 80%),A (A is defined as 0% ≤ substrate protein remaining % ≤ 80%),A (A is defined as 0% ≤ substrate protein remaining % ≤ 80%)
